{"source": "patent US8592174B2", "about": "“Peptidase substrates” (bioMérieux, S.A., priority 2009, dated 2013)", "type_in_all_cases": "cell-based", "key": {"[1]": {"system": "Pectobacterium carotovorum 84 06 059", "experiment": "pH variation detection on modified chromID Coli medium (Example 6)", "parameters": "Coloration strength: key to the marks not given beside the values", "settings": "50 mg/l, 24 h 37° C.", "description": "(§1) The media were incubated for 24 hours at 37° C., then the spots formed were examined visually."}, "[2]": {"system": "Klebsiella oxytoca 05 04 175", "experiment": "pH variation detection on modified chromID Coli medium (Example 6)", "parameters": "Coloration strength: key to the marks not given beside the values", "settings": "50 mg/l, 24 h 37° C.", "description": "as §1"}, "[3]": {"system": "Providencia stuartii 92 12 101", "experiment": "pH variation detection on modified chromID Coli medium (Example 6)", "parameters": "Coloration strength: key to the marks not given beside the values", "settings": "50 mg/l, 24 h 37° C.", "description": "as §1"}, "Hafnia alvei 05 04 201": {"system": "Hafnia alvei 05 04 201", "experiment": "pH variation detection on modified chromID Coli medium (Example 6)", "parameters": "Coloration strength: key to the marks not given beside the values", "settings": "50 mg/l, 24 h 37° C.", "description": "as §1"}, "[4]": {"system": "Shigella boydii 00 04 212", "experiment": "pH variation detection on modified chromID Coli medium (Example 6)", "parameters": "Coloration strength: key to the marks not given beside the values", "settings": "50 mg/l, 24 h 37° C.", "description": "as §1"}, "[5]": {"system": "Enterobacter intermedius 05 04 110", "experiment": "pH variation detection on modified chromID Coli medium (Example 6)", "parameters": "Coloration strength: key to the marks not given beside the values", "settings": "50 mg/l, 24 h 37° C.", "description": "as §1"}, "[6]": {"system": "Morganella morganii ssp morganii 97 08 046", "experiment": "pH variation detection on modified chromID Coli medium (Example 6)", "parameters": "Coloration strength: key to the marks not given beside the values", "settings": "50 mg/l, 24 h 37° C.", "description": "as §1"}, "[7]": {"system": "Rahnella aquatilis 05 04 103", "experiment": "pH variation detection on modified chromID Coli medium (Example 6)", "parameters": "Coloration strength: key to the marks not given beside the values", "settings": "50 mg/l, 24 h 37° C.", "description": "as §1"}, "[8]": {"system": "Pantoea agglomerans 04 05 057", "experiment": "pH variation detection on modified chromID Coli medium (Example 6)", "parameters": "Coloration strength: key to the marks not given beside the values", "settings": "50 mg/l, 24 h 37° C.", "description": "as §1"}, "E. coli 05 06 052": {"system": "E. coli 05 06 052", "experiment": "pH variation detection on modified chromID Coli medium (Example 6)", "parameters": "Coloration strength: key to the marks not given beside the values", "settings": "50 mg/l, 24 h 37° C.", "description": "as §1"}, "[9]": {"system": "Yersinia enterocolitica 05 04 143", "experiment": "pH variation detection on modified chromID Coli medium (Example 6)", "parameters": "Coloration strength: key to the marks not given beside the values", "settings": "50 mg/l, 24 h 37° C.", "description": "as §1"}, "[10]": {"system": "Yersinia enterocolitica ssp enterocolitica 92 11 061", "experiment": "pH variation detection on modified chromID Coli medium (Example 6)", "parameters": "Coloration strength: key to the marks not given beside the values", "settings": "50 mg/l, 24 h 37° C.", "description": "as §1"}, "[11]": {"system": "Buttiauxella agrestis 05 04 166", "experiment": "pH variation detection on modified chromID Coli medium (Example 6)", "parameters": "Coloration strength: key to the marks not given beside the values", "settings": "50 mg/l, 24 h 37° C.", "description": "as §1"}, "[12]": {"system": "Citrobacter koseri 75 08 021", "experiment": "pH variation detection on modified chromID Coli medium (Example 6)", "parameters": "Coloration strength: key to the marks not given beside the values", "settings": "50 mg/l, 24 h 37° C.", "description": "as §1"}, "[13]": {"system": "Enterobacter amnigenus 05 06 046", "experiment": "pH variation detection on modified chromID Coli medium (Example 6)", "parameters": "Coloration strength: key to the marks not given beside the values", "settings": "50 mg/l, 24 h 37° C.", "description": "as §1"}, "E. coli 78 12 004": {"system": "E. coli 78 12 004", "experiment": "pH variation detection on modified chromID Coli medium (Example 6)", "parameters": "Coloration strength: key to the marks not given beside the values", "settings": "50 mg/l, 24 h 37° C.", "description": "as §1"}, "[14]": {"system": "Escherichia vulneris 85 06 777", "experiment": "pH variation detection on modified chromID Coli medium (Example 6)", "parameters": "Coloration strength: key to the marks not given beside the values", "settings": "50 mg/l, 24 h 37° C.", "description": "as §1"}, "Shigella spp 76 02 055": {"system": "Shigella spp 76 02 055", "experiment": "pH variation detection on modified chromID Coli medium (Example 6)", "parameters": "Coloration strength: key to the marks not given beside the values", "settings": "50 mg/l, 24 h 37° C.", "description": "as §1"}, "[15]": {"system": "Raoultella ornithinolytica 05 04 140", "experiment": "pH variation detection on modified chromID Coli medium (Example 6)", "parameters": "Coloration strength: key to the marks not given beside the values", "settings": "50 mg/l, 24 h 37° C.", "description": "as §1"}, "[16]": {"system": "Enterococcus faecalis NCTC 775", "experiment": "Peptidase detection on Columbia medium (Example 2)", "parameters": "key to Growth: NG: No growth; 0.5: weak growth; 1: moderate growth; 2: good growth", "settings": "40 mg in 400 ml Columbia; 24 h 37° C.", "quoted_text": "The 6 media were distributed into Petri dishes 90 mm in diameter, in a proportion of 20 ml per dish.\nSeventeen strains of microorganisms stemming from collections and belonging to various species of bacteria and yeasts are inoculated in spots of approximately 10 000 colony-forming units.\nThe media are incubated for 24 hours at 37° C., and then the colonies formed are examined visually, with or without the addition of acid and under a UV lamp at 365 nm."}, "[17]": {"system": "Streptococcus pyogenes NCTC 8 306", "experiment": "Peptidase detection on Columbia medium (Example 2)", "parameters": "key to Growth: NG: No growth; 0.5: weak growth; 1: moderate growth; 2: good growth", "settings": "40 mg in 400 ml Columbia; 24 h 37° C."}, "[18]": {"system": "Providencia rettgeri NCTC 7 475", "experiment": "Peptidase detection on Columbia medium (Example 2)", "parameters": "key to Growth: NG: No growth; 0.5: weak growth; 1: moderate growth; 2: good growth", "settings": "40 mg in 400 ml Columbia; 24 h 37° C."}}, "data": [{"smiles": "Nc1ccc(C=Cc2ccnc3ccccc23)cc1", "values": [{"measurement": "Color", "setting": "[1]", "result": "Orange"}, {"measurement": "Coloration strength", "setting": "[1]", "result": "++"}, {"measurement": "Growth", "setting": "[1]; control C: ++", "result": "+"}, {"measurement": "Color", "setting": "[2]", "result": "Orange"}, {"measurement": "Coloration strength", "setting": "[2]", "result": "++"}, {"measurement": "Growth", "setting": "[2]; control C: ++", "result": "++"}, {"measurement": "Color", "setting": "[3]", "result": "Orange"}, {"measurement": "Coloration strength", "setting": "[3]", "result": "++"}, {"measurement": "Growth", "setting": "[3]; control C: ++", "result": "++"}, {"measurement": "Color", "setting": "Hafnia alvei 05 04 201", "result": "Orange"}, {"measurement": "Coloration strength", "setting": "Hafnia alvei 05 04 201", "result": "++"}, {"measurement": "Growth", "setting": "Hafnia alvei 05 04 201; control C: ++", "result": "++"}, {"measurement": "Color", "setting": "[4]", "result": "Orange"}, {"measurement": "Coloration strength", "setting": "[4]", "result": "++"}, {"measurement": "Growth", "setting": "[4]; control C: ++", "result": "++"}, {"measurement": "Color", "setting": "[5]", "result": "Orange"}, {"measurement": "Coloration strength", "setting": "[5]", "result": "++"}, {"measurement": "Growth", "setting": "[5]; control C: ++", "result": "+"}, {"measurement": "Color", "setting": "[6]", "result": "Orange"}, {"measurement": "Coloration strength", "setting": "[6]", "result": "++"}, {"measurement": "Growth", "setting": "[6]; control C: ++", "result": "++"}, {"measurement": "Color", "setting": "[7]", "result": "Orange"}, {"measurement": "Coloration strength", "setting": "[7]", "result": "++"}, {"measurement": "Growth", "setting": "[7]; control C: ++", "result": "++"}, {"measurement": "Color", "setting": "[8]", "result": "Orange"}, {"measurement": "Coloration strength", "setting": "[8]", "result": "++"}, {"measurement": "Growth", "setting": "[8]; control C: ++", "result": "++"}, {"measurement": "Color", "setting": "E. coli 05 06 052", "result": "Orange"}, {"measurement": "Coloration strength", "setting": "E. coli 05 06 052", "result": "++"}, {"measurement": "Growth", "setting": "E. coli 05 06 052; control C: ++", "result": "++"}, {"measurement": "Color", "setting": "[9]", "result": "Orange"}, {"measurement": "Coloration strength", "setting": "[9]", "result": "++"}, {"measurement": "Growth", "setting": "[9]; control C: ++", "result": "+"}, {"measurement": "Color", "setting": "[10]", "result": "Orange"}, {"measurement": "Coloration strength", "setting": "[10]", "result": "++"}, {"measurement": "Growth", "setting": "[10]; control C: ++", "result": "++"}, {"measurement": "Color", "setting": "[11]", "result": "Orange"}, {"measurement": "Coloration strength", "setting": "[11]", "result": "++"}, {"measurement": "Growth", "setting": "[11]; control C: ++", "result": "++"}, {"measurement": "Color", "setting": "[12]", "result": "Orange"}, {"measurement": "Coloration strength", "setting": "[12]", "result": "++"}, {"measurement": "Growth", "setting": "[12]; control C: ++", "result": "++"}, {"measurement": "Color", "setting": "[13]", "result": "Orange"}, {"measurement": "Coloration strength", "setting": "[13]", "result": "++"}, {"measurement": "Growth", "setting": "[13]; control C: ++", "result": "++"}, {"measurement": "Color", "setting": "E. coli 78 12 004", "result": "Orange"}, {"measurement": "Coloration strength", "setting": "E. coli 78 12 004", "result": "++"}, {"measurement": "Growth", "setting": "E. coli 78 12 004; control C: ++", "result": "++"}, {"measurement": "Color", "setting": "[14]", "result": "Orange"}, {"measurement": "Coloration strength", "setting": "[14]", "result": "++"}, {"measurement": "Growth", "setting": "[14]; control C: ++", "result": "++"}, {"measurement": "Color", "setting": "Shigella spp 76 02 055", "result": "Orange"}, {"measurement": "Coloration strength", "setting": "Shigella spp 76 02 055", "result": "++"}, {"measurement": "Growth", "setting": "Shigella spp 76 02 055; control C: ++", "result": "++"}, {"measurement": "Color", "setting": "[15]", "result": "Orange"}, {"measurement": "Coloration strength", "setting": "[15]", "result": "++"}, {"measurement": "Growth", "setting": "[15]; control C: ++", "result": "++"}]}, {"smiles": "C[C@H](N)C(=O)N[C@@H](C)C(=O)N[C@@H](C)C(=O)Nc1ccc(C=Cc2cc[n+](C)c3ccccc23)cc1.Cl.[Cl-]", "note": "[Tri-Ala-ASQM^+, L-alanyl-L-alanyl-L-alanyl-4-(4′-amidostyryl)-N-methylquinolinium (dichloride)]", "values": [{"measurement": "Growth", "setting": "[16]", "result": 2}, {"measurement": "Growth", "setting": "[17]", "result": 2}, {"measurement": "Growth", "setting": "[18]", "result": 2}]}]}
